{
  "source": "patent US20160221991A1",
  "about": "“NOVEL TRIAZINE DERIVATIVE” (CARNA BIOSCIENCES, INC., priority 2013, published 2016)",
  "system": "anti-IgM antibody BCR stimulation-induced intracellular calcium influx in Ramos cells",
  "assay": "Inhibition test on the change of Ramos intracellular calcium ion",
  "format": "cell-based",
  "settings": "Fluo-8NW fluorescence, anti-IgM 2.0 μg/mL, FIG. 1",
  "procedure": "The intracellular BTK inhibition by the compounds of the present invention was verified by measuring the effects of the compounds of the present invention on “anti-IgM antibody BCR stimulation-induced intracellular calcium influx”. One day before measurement, the Ramos cells were cultured as being suspended again at a cell density of 1.0×10^6 cells/mL in a fresh growth medium (growth medium as used in Test Example 2), and the cells were recovered next day by centrifugation and washed with RPMI-1640 medium supplemented with 5% penicillin-streptomycin (Nacalai Tesque, Inc.) (Medium 1). […] The Ramos intracellular calcium ion concentration was measured as a fluorescent intensity of the calcium indicator Fluo-8NW using a microplate reader (SynergyH1) (Ex/Em=490/525 nm) After measuring the baseline for 15 seconds, 50 μL of the anti-IgM antibody (Invitrogen, #H15100) diluted with Medium 2 to 10.4 μg/mL was added to each well described above (final concentration of 2.0 μg/mL) to effect BCR stimulation, and then the measurement was continued further for 150 seconds.",
  "data": [
    {"smiles": "Cn1cc(Nc2nc(N)nc(-c3ccnc(-n4ccc5cc(C6CC6)cc(F)c5c4=O)c3CO)n2)cc1C#N", "note": "[Example 3, 4-({4-Amino-6-[2-(6-cyclopropyl-8-fluoro-1-oxoisoquinolin-2(1H)-yl)-3-(hydroxymethyl)pyridin-4-yl]-1,3,5-triazin-2-yl}amino)-1-methyl-1H-pyrrole-2-carbonitrile]", "values": [
      {"measurement": "inhibition of anti-IgM antibody BCR stimulation-induced intracellular calcium ion variation", "result": "in a concentration-dependent manner from a low concentration"}
    ]}
  ]
}
